Measured values reported in the supplement of paper PMC10307832.

Experiments:
Test in all cases: relative viability (nuclei count vs DMSO), 5 days (fraction); higher = more cells survive
NCI-H2085 = system: NCI-H2085
How it was run: (§1)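 One day after seeding in 1536-well plates, lung cancer cell lines were dosed by pin tool. Dosing was either single-drug or a fixed anchor-drug dose plus five library-drug doses (not always all listed) in √10 steps. After 5 days, nuclei were stained in one fix-and-stain step and counted on 4× images, and relative viability is the nuclei count of treated wells over that of vehicle wells, given as the median of duplicate plates.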

NCI-H1792 = system: NCI-H1792
How it was run: as §1

NCI-H1666 = system: NCI-H1666
How it was run: as §1

NCI-H1944 = system: NCI-H1944
How it was run: as §1

LC-2-ad = system: LC-2-ad
How it was run: as §1

NCI-H460 = system: NCI-H460
How it was run: as §1

NCI-H1793 = system: NCI-H1793
How it was run: as §1

EPLC-272H = system: EPLC-272H
How it was run: as §1

LU99A = system: LU99A
How it was run: as §1

UMC-11 = system: UMC-11
How it was run: as §1

NCI-H2170 = system: NCI-H2170
How it was run: as §1

NCI-H2009 = system: NCI-H2009
How it was run: as §1

HCC-78 = system: HCC-78
How it was run: as §1

SK-LU-1 = system: SK-LU-1
How it was run: as §1

COR-L 105 = system: COR-L 105
How it was run: as §1

A-427 = system: A-427
How it was run: as §1

LXF-289 = system: LXF-289
How it was run: as §1

HOP-62 = system: HOP-62
How it was run: as §1

NCI-H1915 = system: NCI-H1915
How it was run: as §1

HCC-366 = system: HCC-366
How it was run: as §1

NCI-H358 = system: NCI-H358
How it was run: as §1

With COc1cc2nccc(Oc3ccc(NC(=O)Nc4cc(C)on4)c(Cl)c3)c2cc1OC [Tivozanib] + CS(=O)(=O)N1CCN(Cc2cc3nc(-c4cccc5[nH]ncc45)nc(N4CCOCC4)c3s2)CC1 [Pictilisib] (partner 1 µM) the relative viability (NCI-H2085; first compound 0.005 µM) was 0.474, the relative viability (NCI-H2085; first compound 0.01581 µM) was 0.456 and the relative viability (NCI-H2085; first compound 0.05 µM) was 0.536. For the same compound, the relative viability (NCI-H2085; first compound 0.1581 µM) was 0.405, the relative viability (NCI-H2085; first compound 0.5 µM) was 0.408 and the relative viability (NCI-H1792; first compound 0.005 µM) was 0.248. The relative viability (NCI-H1792; first compound 0.01581 µM) was 0.27, the relative viability (NCI-H1792; first compound 0.05 µM) was 0.289 and the relative viability (NCI-H1792; first compound 0.1581 µM) was 0.283. For the same compound, the relative viability (NCI-H1792; first compound 0.5 µM) was 0.274, the relative viability (NCI-H1666; first compound 0.005 µM) was 0.404 and the relative viability (NCI-H1666; first compound 0.01581 µM) was 0.393. For the same compound, the relative viability (NCI-H1666; first compound 0.05 µM) was 0.384, the relative viability (NCI-H1666; first compound 0.1581 µM) was 0.389 and the relative viability (NCI-H1666; first compound 0.5 µM) was 0.478. The relative viability (NCI-H1944; first compound 0.005 µM) was 0.327, the relative viability (NCI-H1944; first compound 0.01581 µM) was 0.365 and the relative viability (NCI-H1944; first compound 0.05 µM) was 0.356. It also gave a relative viability (NCI-H1944; first compound 0.1581 µM) of 0.289, a relative viability (NCI-H1944; first compound 0.5 µM) of 0.307 and a relative viability (LC-2-ad; first compound 0.005 µM) of 0.417. For the same compound, the relative viability (LC-2-ad; first compound 0.01581 µM) was 0.353, the relative viability (LC-2-ad; first compound 0.05 µM) was 0.263 and the relative viability (LC-2-ad; first compound 0.1581 µM) was 0.204. The relative viability (LC-2-ad; first compound 0.5 µM) was 0.159, the relative viability (NCI-H460; first compound 0.005 µM) was 0.337 and the relative viability (NCI-H460; first compound 0.01581 µM) was 0.296. The relative viability (NCI-H460; first compound 0.05 µM) was 0.449, the relative viability (NCI-H460; first compound 0.1581 µM) was 0.253 and the relative viability (NCI-H460; first compound 0.5 µM) was 0.36. It also gave a relative viability (NCI-H1793; first compound 0.005 µM) of 0.222, a relative viability (NCI-H1793; first compound 0.01581 µM) of 0.257 and a relative viability (NCI-H1793; first compound 0.05 µM) of 0.364. For the same compound, the relative viability (NCI-H1793; first compound 0.5 µM) was 0.292, the relative viability (EPLC-272H; first compound 0.005 µM) was 0.311 and the relative viability (EPLC-272H; first compound 0.01581 µM) was 0.31. For the same compound, the relative viability (EPLC-272H; first compound 0.05 µM) was 0.326, the relative viability (EPLC-272H; first compound 0.1581 µM) was 0.285 and the relative viability (EPLC-272H; first compound 0.5 µM) was 0.162. The relative viability (LU99A; first compound 0.005 µM) was 0.315, the relative viability (LU99A; first compound 0.01581 µM) was 0.339 and the relative viability (LU99A; first compound 0.05 µM) was 0.348. For the same compound, the relative viability (LU99A; first compound 0.5 µM) was 0.317, the relative viability (UMC-11; first compound 0.005 µM) was 0.793 and the relative viability (UMC-11; first compound 0.01581 µM) was 0.725. It also gave a relative viability (UMC-11; first compound 0.05 µM) of 0.712, a relative viability (UMC-11; first compound 0.5 µM) of 0.653 and a relative viability (NCI-H2170; first compound 0.005 µM) of 0.312. It also gave a relative viability (NCI-H2170; first compound 0.01581 µM) of 0.344, a relative viability (NCI-H2170; first compound 0.05 µM) of 0.404 and a relative viability (NCI-H2170; first compound 0.5 µM) of 0.335. For the same compound, the relative viability (NCI-H2009; first compound 0.005 µM) was 0.811, the relative viability (NCI-H2009; first compound 0.01581 µM) was 0.776 and the relative viability (NCI-H2009; first compound 0.05 µM) was 0.833. For the same compound, the relative viability (NCI-H2009; first compound 0.1581 µM) was 0.633, the relative viability (NCI-H2009; first compound 0.5 µM) was 0.663 and the relative viability (HCC-78; first compound 0.005 µM) was 0.188. The relative viability (HCC-78; first compound 0.01581 µM) was 0.235, the relative viability (HCC-78; first compound 0.05 µM) was 0.207 and the relative viability (HCC-78; first compound 0.1581 µM) was 0.14. For the same compound, the relative viability (HCC-78; first compound 0.5 µM) was 0.206, the relative viability (SK-LU-1; first compound 0.005 µM) was 0.618 and the relative viability (SK-LU-1; first compound 0.01581 µM) was 0.465. It also gave a relative viability (SK-LU-1; first compound 0.05 µM) of 0.483, a relative viability (SK-LU-1; first compound 0.1581 µM) of 0.336 and a relative viability (SK-LU-1; first compound 0.5 µM) of 0.55. The relative viability (COR-L 105; first compound 0.01581 µM) was 0.405, the relative viability (COR-L 105; first compound 0.05 µM) was 0.431 and the relative viability (COR-L 105; first compound 0.1581 µM) was 0.347. It also gave a relative viability (COR-L 105; first compound 0.5 µM) of 0.317, a relative viability (A-427; first compound 0.005 µM) of 0.656 and a relative viability (A-427; first compound 0.01581 µM) of 0.746. It also gave a relative viability (A-427; first compound 0.05 µM) of 0.705, a relative viability (A-427; first compound 0.1581 µM) of 0.511 and a relative viability (A-427; first compound 0.5 µM) of 0.71. It also gave a relative viability (LXF-289; first compound 0.005 µM) of 0.736, a relative viability (LXF-289; first compound 0.01581 µM) of 0.814 and a relative viability (LXF-289; first compound 0.05 µM) of 0.758. The relative viability (LXF-289; first compound 0.1581 µM) was 0.764, the relative viability (LXF-289; first compound 0.5 µM) was 0.807 and the relative viability (HOP-62; first compound 0.005 µM) was 0.579. For the same compound, the relative viability (HOP-62; first compound 0.01581 µM) was 0.744, the relative viability (HOP-62; first compound 0.05 µM) was 0.708 and the relative viability (HOP-62; first compound 0.1581 µM) was 0.368. It also gave a relative viability (HOP-62; first compound 0.5 µM) of 0.649, a relative viability (NCI-H1915; first compound 0.005 µM) of 0.936 and a relative viability (NCI-H1915; first compound 0.01581 µM) of 0.995. For the same compound, the relative viability (NCI-H1915; first compound 0.05 µM) was 0.901, the relative viability (NCI-H1915; first compound 0.1581 µM) was 0.485 and the relative viability (NCI-H1915; first compound 0.5 µM) was 0.742. The relative viability (HCC-366; first compound 0.005 µM) was 0.126, the relative viability (HCC-366; first compound 0.01581 µM) was 0.179 and the relative viability (HCC-366; first compound 0.05 µM) was 0.103. The relative viability (HCC-366; first compound 0.1581 µM) was 0.189, the relative viability (HCC-366; first compound 0.5 µM) was 0.175 and the relative viability (NCI-H358; first compound 0.005 µM) was 0.345. For the same compound, the relative viability (NCI-H358; first compound 0.01581 µM) was 0.332, the relative viability (NCI-H358; first compound 0.05 µM) was 0.386 and the relative viability (NCI-H358; first compound 0.1581 µM) was 0.254. For the same compound, the relative viability (NCI-H358; first compound 0.5 µM) was 0.367.
